From ChEMBL document CHEMBL5321251, “Visible light-activated prodrug system with a novel heavy-atom-free photosensitizer” (Bioorg Med Chem Lett, 2023)
Activity calls are given as the source filed them. No cut-off for these calls is given here.

Key:
HeLa [1] = assay: Cytotoxicity against human HeLa cells assessed as inhibition of cell growth pre-treated with compound for 3 hrs followed by 620/25 nm red light irradiation for 30 mins measured after 72 hrs by CCK-8 assay; type: functional, cell-based; conditions: for IC50: light or radiation study
HeLa [2] = assay: Cytotoxicity against human HeLa cells assessed as inhibition of cell growth pre-treated with compound for 3 hrs measured after 72 hrs in dark condition by CCK-8 assay; type: functional, cell-based; conditions: time 75.0 hrs
[3] = Photoactivation of the compound assessed as photocleavage in the absence of 620/25 nm red light irradiation measured after 2 hrs by LC-MS analysis
[4] = Photoactivation of the compound assessed as photocleavage in the presence of 620/25 nm red light irradiation measured after 30 mins by LC-MS analysis; conditions: 0.5 h
[5] = Photoactivation of the compound assessed as photocleavage in the presence of 520/25 nm green light irradiation by LC-MS analysis
[6] = Photoactivation of the compound assessed as photocleavage in the presence of 620/25 nm red light irradiation measured after 2 hrs by LC-MS analysis
[7] = Photoactivation of the compound assessed as photocleavage in the presence of 620/25 nm red light irradiation by LC-MS analysis

Row | Drug metabolism [3] | Drug metabolism [4] [%] | Drug metabolism [5] | Drug metabolism [7] | Structure (SMILES) | IC50 (HeLa [1]) [nM] | Activity (HeLa [2]) | Drug metabolism [6] [%] | Drug metabolism (HeLa [1]; time 75.5 hrs)
1 | Metabolite_Notdetected | 80 | Metabolite_Detected |  | CC(=O)O[C@H]1C(=O)[C@@]2(C)[C@H]([C@H](OC(=O)c3ccccc3)[C@]3(O)C[C@H](OC(=O)[C@H](OC(=O)/C=C/N4CCC(COC(=O)CN5C(=S)c6cc7ccc(N(C)C)cc7cc6C5=S)CC4)[C@@H](NC(=O)c4ccccc4)c4ccccc4)C(C)=C1C3(C)C)[C@]1(OC(C)=O)CO[C@@H]1C[C@@H]2O | 7.2 | inactive |  | 
2 |  |  |  | Metabolite_Notdetected | CC(=O)O[C@H]1C(=O)[C@@]2(C)[C@H]([C@H](OC(=O)c3ccccc3)[C@]3(O)C[C@H](OC(=O)[C@H](OC(=O)/C=C/N4CCC(COC(=O)CN5C(=O)c6cc7ccc(N(C)C)cc7cc6C5=O)CC4)[C@@H](NC(=O)c4ccccc4)c4ccccc4)C(C)=C1C3(C)C)[C@]1(OC(C)=O)CO[C@@H]1C[C@@H]2O |  |  |  | Metabolite not detected

Second part, the compound before the results:

Row | Structure (SMILES) | Drug metabolism [3] | Drug metabolism [4] [%] | Drug metabolism [5] | Drug metabolism [7] | IC50 (HeLa [1]) [nM] | Activity (HeLa [2]) | Drug metabolism [6] [%] | Drug metabolism (HeLa [1]; time 75.5 hrs)
3 | CC(=O)O[C@H]1C(=O)[C@@]2(C)[C@H]([C@H](OC(=O)c3ccccc3)[C@]3(O)C[C@H](OC(=O)[C@H](O)[C@@H](NC(=O)c4ccccc4)c4ccccc4)C(C)=C1C3(C)C)[C@]1(OC(C)=O)CO[C@@H]1C[C@@H]2O [PACLITAXEL] |  |  |  |  | 13.2 |  |  | 
4 | CCc1c2c(nc3ccc(OC(=O)/C=C/N4CCC(COC(=O)CN5C(=S)c6cc7ccc(N(C)C)cc7cc6C5=S)CC4)cc13)-c1cc3c(c(=O)n1C2)COC(=O)[C@]3(O)CC | Metabolite_Notdetected | 50 |  |  | 84 |  | < 20 | 
5 | COc1ccc(/C=C\c2cc(OC)c(OC)c(OC)c2)cc1OC(=O)/C=C/N1CCC(COC(=O)CN2C(=S)c3cc4ccc(N(C)C)cc4cc3C2=S)CC1 | Metabolite_Notdetected | 50 |  |  | 14.5 |  | < 20 | 
